Assay results published in patent US20130310256A1, “HERBICIDAL COMPOSITIONS COMPRISING 4-AMINO-3-CHLORO-5-FLUORO-6-(4-CHLORO-2-FLUORO-3-METHOXYPHENYL) PYRIDINE-2-CARBOXYLIC ACID OR A DERIVATIVE THEREOF AND VLCFA AND LIPID SYNTHESIS INHIBITING HERBICIDES” (DOW AGROSCIENCES LLC, priority 2008, published 2013).

Assays:
IPOHE = experiment: Example IV: pre-emergence soil-applied weed control, greenhouse; assay type: in vivo, Ipomoea hederacea Jacq. (ivyleaf morningglory)
Excerpt: Seeds or nutlets of the desired test plant species were planted in a soil matrix prepared by mixing a loam soil (32 percent silt, 23 percent clay, and 45 percent sand, with a pH of about 6.5 and an organic matter content of about 1.9 percent) and calcareous grit in an 80 to 20 ratio. The soil matrix was contained in plastic pots with a volume of 1 quart and a surface area of 83.6 square centimeters (cm^2).
Treatments consisted of the benzyl ester of 4-amino-3-chloro-5-fluoro-6-(4-chloro-2-fluoro-3-methoxy-phenyl)pyridine-2-carboxylic acid (compound A) formulated as an SC (suspension concentrate) and various herbicidal components alone and in combination. Forms of compound A were applied on an acid equivalent basis.
Other herbicidal components were applied on an active ingredient basis and included very long chain fatty acid (VLCFA) synthesis-inhibiting and fatty acid/lipid synthesis-inhibiting herbicides alachlor (technical grade material), dimethenamid-P formulated as Outlook®, and S-metolachlor formulated as Dual® II Magnum.
(§1) Treatment requirements were calculated based upon the rates being tested, the concentration of active ingredient or acid equivalent in the formulation, and a 12 mL application volume at a rate of 187 L/ha.
For treatments comprised of formulated compounds, measured amounts of compounds were placed individually in 25 mL glass vials and diluted in a volume of 1.25% (v/v) Agri-Dex® crop oil concentrate (COC) to obtain 12× stock solutions. […] Application solutions were prepared by adding an appropriate amount of each stock solution (e.g., 1 mL) and diluted to the appropriate final concentrations with the addition of 10 mL of an aqueous mixture of 1.25% (v/v) COC so that the final spray solutions contained 1.25% (v/v) COC.
(§2) For treatments comprised of technical compounds, weighed amounts can be placed individually in 25 mL glass vials and dissolved in a volume of 97:3 (v/v) acetone/DMSO to obtain 12× stock solutions. […] Application solutions can be prepared by adding an appropriate amount of each stock solution (e.g., 1 mL) and diluted to the appropriate final concentrations with the addition of 10 mL of an aqueous mixture of 1.5% (v/v) COC so that the final spray solutions contain 1.25% (v/v) COC. When technical materials are used, the concentrated stock solutions can be added to the spray solutions so that the final acetone and DMSO concentrations of the application solutions are 16.2% and 0.5%, respectively.
For treatments comprised of formulated and technical compounds, weighed amounts of the technical materials were placed individually in 25 mL glass vials and dissolved in a volume of 97:3 (v/v) acetone/DMSO to obtain 12× stock solutions, and measured amounts of the formulated compounds were placed individually in 25 mL glass vials and diluted in a volume of 1.5% (v/v) COC or water to obtain 12× stock solutions. […] Application solutions were prepared by adding an appropriate amount of each stock solution (e.g., 1 mL) and diluted to the appropriate final concentrations with the addition of an appropriate amount of an aqueous mixture of 1.5% (v/v) COC so that the final spray solutions contained 1.25% (v/v) COC. As required, additional water and/or 97:3 (v/v) acetone/DMSO was added to individual application solutions so that the final acetone and DMSO concentrations of the application solutions being compared were 8.1% and 0.25%, respectively.
All stock solutions and applications solutions were visually inspected for compound compatibility prior to application. Spray solutions were applied to the soil with an overhead Mandel track sprayer equipped with a 8002E nozzles calibrated to deliver 187 L/ha over an application area of 0.503 m^2 at a spray height of 18 inches (46 cm) above average pot height. Control pots were sprayed in the same manner with the solvent blank.
The treated and control pots were placed in a greenhouse and top watered as needed. […]

LEFCH = experiment: Example I: postemergence foliar-applied weed control, greenhouse; assay type: in vivo, Leptochloa chinensis (L.) Nees (Chinese sprangletop); details: foliar
Excerpt: (§3) Seeds or nutlets of the desired test plant species were planted in a soil matrix prepared by mixing a loam or sandy loam soil (e.g., 28.6 percent silt, 18.8 percent clay, and 52.6 percent sand, with a pH of about 5.8 and an organic matter content of about 1.8 percent) and calcareous grit in an 80 to 20 ratio. The soil matrix was contained in plastic pots with a volume of 1 quart and a surface area of 83.6 square centimeters (cm^2). When required to ensure good germination and healthy plants, a fungicide treatment and/or other chemical or physical treatment was applied. The plants were grown for 8-22 days in a greenhouse with an approximate 14 hr photoperiod which was maintained at about 29° C. during the day and 26° C. during the night. Nutrients (Peters Excel® 15-5-15 5-Ca 2-Mg and iron chelate) were applied in the irrigation solution as needed and water was added on a regular basis. Supplemental lighting was provided with overhead metal halide 1000-Watt lamps as necessary. The plants were employed for testing when they reached the first through fourth true leaf stage.
(§4) Treatments consisted of the acid or esters of 4-amino-3-chloro-5-fluoro-6-(4-chloro-2-fluoro-3-methoxy-phenyl)pyridine-2-carboxylic acid (Compound A), each formulated as an SC (suspension concentrate), and various herbicidal components alone and in combination. Forms of compound A were applied on an acid equivalent basis.
(§5) Other herbicidal components were applied on an active ingredient basis and included very long chain fatty acid (VLCFA) synthesis-inhibiting and fatty acid/lipid synthesis-inhibiting herbicides acetochlor (technical grade material), acetochlor+dichlormid formulated as Topnotch®, pretilachlor (technical grade material), butachlor formulated as Butachlor EC, fentrazamide formulated as Fentrazamide EC, thiobencarb formulated as Bolero® 8EC, cafenstrole formulated as Himeadow® WP or Lapost® Flowable, benfuresate formulated as Full Shot®, dimethenamid-P formulated as Outlook®, indanofan (technical grade material), flufenacet formulated as Define® DF, mefenacet (technical grade material), S-metolachlor formulated as Dual® II Magnum, pethoxamid formulated as Successor® 600, and pyroxasulfone (technical grade material).
as §1
(§6) For treatments comprised of formulated compounds, measured amounts of compounds were placed individually in 25 mL glass vials and diluted in a volume of 1.25% (v/v) Agri-Dex® crop oil concentrated to obtain 12× stock solutions. […] Application solutions were prepared by adding an appropriate amount of each stock solution (e.g., 1 mL) and diluted to the appropriate final concentrations with the addition of 10 mL of an aqueous mixture of 1.25% (v/v) crop oil concentrate so that the final spray solutions contained 1.25+/−0.05% (v/v) crop oil concentrate.
as §2, with “97:3 v/v” for “97:3 (v/v)”, “(v/v) crop oil concentrate” for “(v/v) COC”, “(v/v) crop oil concentrate.” for “(v/v) COC.”, “respectively. […]” for “respectively.”

CYPES = experiment: as above; assay type: in vivo, Cyperus esculentus L. (yellow nutsedge)
CYPIR = experiment: as above; assay type: in vivo, Cyperus iria L. (rice flatsedge); details: foliar
Excerpt: as §3, §4, §5, §1, §6
as §2, with “97:3 v/v” for “97:3 (v/v)”, “(v/v) crop oil concentrate” for “(v/v) COC”, “(v/v) crop oil concentrate.” for “(v/v) COC.”, “respectively. […]” for “respectively.”

ECHCG = experiment: as above; assay type: in vivo, Echinochloa crus-galli (L.) Beauv. (barnyardgrass); details: foliar
Excerpt: as §3, §4, §5, §1, §6
as §2, with “97:3 v/v” for “97:3 (v/v)”, “(v/v) crop oil concentrate” for “(v/v) COC”, “(v/v) crop oil concentrate.” for “(v/v) COC.”, “respectively. […]” for “respectively.”

CCc1cccc(CC)c1N(COC)C(=O)CCl [Alachlor, 2-chloro-N-(2,6-diethylphenyl)-N-(methoxymethyl)acetamide]
Visual Weed Control IPOHE Obs (IPOHE; 1240 gai/ha, 27 DAA): 5%
Visual Weed Control IPOHE Obs (IPOHE; 2480 gai/ha, 27 DAA): 13%

CCOCCN(C(=O)CCl)C(=C(C)C)c1ccccc1 [Pethoxamid, 2-Chloro-N-(2-ethoxyethyl)-N-(2-methyl-1-phenyl-1-propen-1-yl)acetamide]
Visual Weed Control (%) - 21 DAA LEFCH Obs (LEFCH; 305 gai/ha): 10%
Visual Weed Control (%) - 21 DAA LEFCH Obs (LEFCH; 610 gai/ha): 10%
Visual Weed Control (%) - 21 DAA CYPES Obs (CYPES; 305 gai/ha): 0%
Visual Weed Control (%) - 21 DAA CYPES Obs (CYPES; 610 gai/ha): 25%
Visual Weed Control (%) - 21 DAA CYPES Obs (CYPES; 1220 gai/ha): 65%
Visual Weed Control (%) - 21 DAA CYPIR Obs (CYPIR; 305 gai/ha): 40%
Visual Weed Control (%) - 21 DAA CYPIR Obs (CYPIR; 610 gai/ha): 80%
Visual Weed Control (%) - 21 DAA CYPIR Obs (CYPIR; 1220 gai/ha): 85%

CCc1cccc(C)c1N(C(=O)CCl)C(C)COC (stereo not drawn) [S-Metolachlor]
Visual Weed Control IPOHE Obs (IPOHE; 387.5 gai/ha, 28 DAA): 25%
Visual Weed Control IPOHE Obs (IPOHE; 775 gai/ha, 28 DAA): 0%
Visual Weed Control IPOHE Obs (IPOHE; 1550 gai/ha, 28 DAA): 33%
Visual Weed Control (%) - 20 DAA ECHCG Obs (ECHCG; 387.5 gai/ha): 20%
Visual Weed Control (%) - 20 DAA ECHCG Obs (ECHCG; 775 gai/ha): 55%
